The source of these data is patent US20170304386A1, “METHOD FOR INHIBITING SURVIVAL, TUMORIGENESIS AND METASTASIS OF CANCER CELLS AND/OR CANCER STEM CELLS” (priority 2014, published 2017).

Molecules are shown by their SMILES.

The test system of one assay is enriched TICs (HT29). Nature of the assay: Tumourigenicity of enriched TICs (xenograft transplantation). Format: in vivo, athymic nude mice. As to conditions: TICs directly treated with S3I-201 50 μM, or S3I-201 5 mg/kg intravenously post injection of TICs. Here is the method: (§1) FIGS. 8a-8f show the suspension survival ability determines tumourigenicity and corresponds to clinical tumour staging and survival. […] FIGS. 8b and 8c show the culture-enriched TICs (SPH) of HT29 and ALDH^+ cells isolated from HCW primary liver metastasis cancer cells and fresh cancer cells were cultured in spheroid condition for 24 hours with treatment of STAT3 inhibitor (S3I-201, 50 μM) or 1:25 dilution of the 0.25 mg/ml anti-Col XVII antibody, followed by TUNEL assay. (Ab-1, Abcam; Ab-2, Pierce). […] FIG. 8e (top), representative pictures of positive staining of colorectal tumour tissues (different stages) are shown, FIG. 8e (bottom), quantification and the correlation between protein expression and tumour stages was subsequently determined. The results are expressed as percentage of DAB positive cells and every single plot represents a patient. The median is shown as a single black line. […] The expression of pS727STAT≧40% or Col XVII 50% was regarded as positive. Asterisks indicate significant differences determined by Fisher's exact test, one-way ANOVA, and log-rank test.
The protocols were approved by the Institutional Animal Committee of Taipei Veterans General Hospital. […] Tumour cells were injected subcutaneously (s.c.) and tumour growth was monitored every week for up to 3 months. […]

The subject of assay [1] is culture-enriched TICs (SPH) of HT29 and ALDH+ cells isolated from HCW primary liver metastasis cancer cells and fresh cancer cells. Nature of the assay: TUNEL assay of TICs cultured in spheroid (suspension) condition. Format: cell-based, human. The settings on record: spheroid condition 24 hours; S3I-201 50 μM. As for the experimental part: as §1, with “test. […]” for “test.”
Detection of apoptosis was performed (Roche Molecular Biochemicals, Indianapolis, Ind.). […] Immunofluorescence is observed with fluorescence microscope.

In the case of `Cc1ccc(S(=O)(=O)OCC(=O)Nc2ccc(C(=O)O)c(O)c2)cc1` [S3I-201], the tumour initiation entry in the assay on enriched TICs (HT29) is “inhibited tumour initiation”. The “killing of TICs in suspension culture (TUNEL assay)” value in assay [1] is on record as “killed TICs”.
